# Laboratory results from patent US20130029928A1 (priority 2010, published 2013).
# Like-named read-outs stand apart in the source and are kept apart here.
# Assay: Phase I study CXR1002-001: plasma pharmacokinetics (LC-MS/MS)
# Type: in vivo, human
# Conditions: human, plasma, oral; for concentration at 528 h / concentration at 528 hr: 528 hr (Day 23); for concentration at 696 h: 696 hr (Day 30); for concentration at 840 h: 840 hr (Day 36)
# Source text: PK samples, PD (fasting) samples, blood glucose, and blood triglyceride samples, were taken over a 6-week period.
# Dose limiting toxicity (DLT) will be based on the toxicity assessments over the first 3-week period of the repeat dosing schedule. PK samples (single blood sample) were taken on the following basis: • Every 6 weeks during the repeat dosing phase • If dosing is interrupted or stopped, samples will be taken at intervals according to patient convenience • PK sampling for safety evaluation may take place at any time, as clinically indicated
# Plasma samples were collected after the single 50 mg dose at the following timepoints: Pre-dose, and then 0.25, 0.5, 0.75, 1, 1.5, 2, 3, 4, 6, 24, 48, and 72 hours after administration and then once weekly at weeks 2, 3, 4, 5, and 6 (days 8, 15, 22, 29, and 36). For patients treated with the weekly repeat dose, plasma samples were collected at the following timepoints: Pre-dose and then 2, 3, 4 and 24 hours after administration for a total of 6 weeks. Thereafter a single sample was collected every 6 weeks for monitoring of exposure during long term treatment. Plasma samples were processed at site and stored at −80° C. prior to batch shipment to the analytical laboratory.
# [1] = 100 mg, Patient 005 Dose 100 mg, read-out: Concentration
# [2] = 100 mg, Patient 006 Dose 100 mg, read-out: Concentration
# [3] = 100 mg, Patient 007 Dose 100 mg, read-out: Concentration
# [4] = 200 mg, Patient 008 Dose 200 mg, read-out: Concentration
# [5] = 200 mg, Patient 009 Dose 200 mg, read-out: Concentration
smiles,measurement,setting,value
O=C(O)C(F)(F)C(F)(F)C(F)(F)C(F)(F)C(F)(F)C(F)(F)C(F)(F)F [CXR1002],concentration at 360 h,"100 mg, Patient 005 Dose 100 mg, 360 hr (Day 16), read-out: Concentration",47.4 µM
same,concentration at 504 h,"100 mg, Patient 005 Dose 100 mg, 504 hr (Day 22), read-out: Concentration",48.4 µM
same,concentration at 506 h,"100 mg, Patient 005 Dose 100 mg, 506 hr, read-out: Concentration",84 µM
same,concentration at 507 h,[1],74.4 µM
same,concentration at 508 h,"100 mg, Patient 005 Dose 100 mg, 508 hr, read-out: Concentration",87.4 µM
same,concentration at 528 h,[1],57.9 µM
same,concentration at 672 h,"100 mg, Patient 005 Dose 100 mg, 672 hr (Day 29), read-out: Concentration",80.8 µM
same,concentration at 674 h,"100 mg, Patient 005 Dose 100 mg, 674 hr, read-out: Concentration",99.7 µM
same,concentration at 675 h,"100 mg, Patient 005 Dose 100 mg, 675 hr, read-out: Concentration",101 µM
same,concentration at 676 h,[1],82.7 µM
same,concentration at 696 h,[1],78.8 µM
same,concentration at 840 h,[1],99.4 µM
same,concentration at 842 h,"100 mg, Patient 005 Dose 100 mg, 842 hr, read-out: Concentration",80 µM
same,concentration at 843 h,"100 mg, Patient 005 Dose 100 mg, 843 hr, read-out: Concentration",98.9 µM
same,concentration at 844 h,"100 mg, Patient 005 Dose 100 mg, 844 hr, read-out: Concentration",91.4 µM
same,concentration at 864 h,"100 mg, Patient 005 Dose 100 mg, 864 hr (Day 37), read-out: Concentration",109 µM
same,concentration at 92 day,"100 mg, Patient 005 Dose 100 mg, Day 92",276 µM
same,concentration at 0 h,"100 mg, Patient 006 Dose 100 mg",0.21 µM
same,concentration at 2 h,[2],32.3 µM
same,concentration at 3 h,[2],27.1 µM
same,concentration at 4 h,"100 mg, Patient 006 Dose 100 mg, 4 hr, read-out: Concentration",24.6 µM
same,concentration at 24 h,"100 mg, Patient 006 Dose 100 mg, 24 hr (Day 2), read-out: Concentration",28.2 µM
same,concentration at 168 h,"100 mg, Patient 006 Dose 100 mg, 168 hr (Day 8), read-out: Concentration",26.2 µM
same,concentration at 170 h,[2],36.6 µM
same,concentration at 171 hr,"100 mg, Patient 006 Dose 100 mg, 171 hr, read-out: Concentration",41.1 µM
same,concentration at 172 hr,"100 mg, Patient 006 Dose 100 mg, 172 hr, read-out: Concentration",47.5 µM
same,concentration at 192 hr,"100 mg, Patient 006 Dose 100 mg, 192 hr (Day 9), read-out: Concentration",44.7 µM
same,concentration at 336 h,"100 mg, Patient 006 Dose 100 mg, 336 hr (Day 15), read-out: Concentration",33.1 µM
same,concentration at 338 h,[2],49.5 µM
same,concentration at 339 h,[2],55.9 µM
same,concentration at 360 h,"100 mg, Patient 006 Dose 100 mg, 360 hr (Day 16), read-out: Concentration",65.2 µM
same,concentration at 504 h,"100 mg, Patient 006 Dose 100 mg, 504 hr (Day 22), read-out: Concentration",70.5 µM
same,concentration at 506 h,"100 mg, Patient 006 Dose 100 mg, 506 hr, read-out: Concentration",76.4 µM
same,concentration at 507 hr,[2],83.8 µM
same,concentration at 528 hr,[2],97 µM
same,concentration at 672 h,"100 mg, Patient 006 Dose 100 mg, 672 hr (Day 29), read-out: Concentration",86.9 µM
same,concentration at 674 h,"100 mg, Patient 006 Dose 100 mg, 674 hr, read-out: Concentration",85.7 µM
same,concentration at 696 h,[2],89.5 µM
same,concentration at 840 h,[2],85.6 µM
same,concentration at 842 hr,"100 mg, Patient 006 Dose 100 mg, 842 hr, read-out: Concentration",179 µM
same,concentration at 843 hr,"100 mg, Patient 006 Dose 100 mg, 843 hr, read-out: Concentration",138 µM
same,concentration at 844 hr,"100 mg, Patient 006 Dose 100 mg, 844 hr, read-out: Concentration",138 µM
same,concentration at 864 hr,"100 mg, Patient 006 Dose 100 mg, 864 hr (Day 37), read-out: Concentration",123 µM
same,concentration at 0 hr,"100 mg, Patient 007 Dose 100 mg",0 µM
same,concentration at 2 hr,[3],30.9 µM
same,concentration at 3 hr,[3],28.6 µM
same,concentration at 4 hr,"100 mg, Patient 007 Dose 100 mg, 4 hr, read-out: Concentration",19.3 µM
same,concentration at 24 hr,"100 mg, Patient 007 Dose 100 mg, 24 hr (Day 2), read-out: Concentration",17.3 µM
same,concentration at 168 hr,"100 mg, Patient 007 Dose 100 mg, 168 hr (Day 8), read-out: Concentration",12.2 µM
same,concentration at 336 hr,"100 mg, Patient 007 Dose 100 mg, 336 hr (Day 15), read-out: Concentration",19.2 µM
same,concentration at 338 hr,[3],52.8 µM
same,concentration at 339 hr,[3],53.1 µM
same,concentration at 340 hr,"100 mg, Patient 007 Dose 100 mg, 340 hr, read-out: Concentration",55.8 µM
same,concentration at 360 hr,"100 mg, Patient 007 Dose 100 mg, 360 hr (Day 16), read-out: Concentration",32 µM
same,concentration at 504 hr,"100 mg, Patient 007 Dose 100 mg, 504 hr (Day 22), read-out: Concentration",39.7 µM
same,concentration at 506 hr,"100 mg, Patient 007 Dose 100 mg, 506 hr, read-out: Concentration",53.1 µM
same,concentration at 507 hr,[3],65.8 µM
same,concentration at 508 hr,"100 mg, Patient 007 Dose 100 mg, 508 hr, read-out: Concentration",73 µM
same,concentration at 528 hr,[3],63.4 µM
same,concentration at 0 hr,"200 mg, Patient 008 Dose 200 mg",0 µM
same,concentration at 2 hr,[4],114 µM
same,concentration at 3 hr,[4],102 µM
same,concentration at 4 h,"200 mg, Patient 008 Dose 200 mg, 4 hr, read-out: Concentration",81 µM
same,concentration at 24 h,"200 mg, Patient 008 Dose 200 mg, 24 hr (Day 2), read-out: Concentration",70.4 µM
same,concentration at 168 h,"200 mg, Patient 008 Dose 200 mg, 168 hr (Day 8), read-out: Concentration",64.6 µM
same,concentration at 170 h,[4],171 µM
same,concentration at 171 h,"200 mg, Patient 008 Dose 200 mg, 171 hr, read-out: Concentration",143 µM
same,concentration at 172 h,"200 mg, Patient 008 Dose 200 mg, 172 hr, read-out: Concentration",130 µM
same,concentration at 192 h,"200 mg, Patient 008 Dose 200 mg, 192 hr (Day 9), read-out: Concentration",110 µM
same,concentration at 336 hr,"200 mg, Patient 008 Dose 200 mg, 336 hr (Day 15), read-out: Concentration",124 µM
same,concentration at 338 hr,[4],147 µM
same,concentration at 339 hr,[4],172 µM
same,concentration at 340 h,"200 mg, Patient 008 Dose 200 mg, 340 hr, read-out: Concentration",192 µM
same,concentration at 360 h,"200 mg, Patient 008 Dose 200 mg, 360 hr (Day 16), read-out: Concentration",211 µM
same,concentration at 504 h,"200 mg, Patient 008 Dose 200 mg, 504 hr (Day 22), read-out: Concentration",277 µM
same,concentration at 506 h,"200 mg, Patient 008 Dose 200 mg, 506 hr, read-out: Concentration",282 µM
same,concentration at 507 h,[4],368 µM
same,concentration at 508 h,"200 mg, Patient 008 Dose 200 mg, 508 hr, read-out: Concentration",281 µM
same,concentration at 528 h,[4],285 µM
same,concentration at 672 hr,"200 mg, Patient 008 Dose 200 mg, 672 hr (Day 29), read-out: Concentration",337 µM
same,concentration at 674 hr,"200 mg, Patient 008 Dose 200 mg, 674 hr, read-out: Concentration",356 µM
same,concentration at 675 hr,"200 mg, Patient 008 Dose 200 mg, 675 hr, read-out: Concentration",321 µM
same,concentration at 676 h,[4],364 µM
same,concentration at 696 h,[4],426 µM
same,concentration at 840 h,[4],425 µM
same,concentration at 842 h,"200 mg, Patient 008 Dose 200 mg, 842 hr, read-out: Concentration",361 µM
same,concentration at 843 h,"200 mg, Patient 008 Dose 200 mg, 843 hr, read-out: Concentration",397 µM
same,concentration at 844 h,"200 mg, Patient 008 Dose 200 mg, 844 hr, read-out: Concentration",414 µM
same,concentration at 864 h,"200 mg, Patient 008 Dose 200 mg, 864 hr (Day 37), read-out: Concentration",354 µM
same,concentration at 0 h,"200 mg, Patient 009 Dose 200 mg",0 µM
same,concentration at 2 h,[5],93.4 µM
same,concentration at 3 h,[5],61.2 µM
same,concentration at 4 h,"200 mg, Patient 009 Dose 200 mg, 4 hr, read-out: Concentration",71.1 µM
same,concentration at 24 h,"200 mg, Patient 009 Dose 200 mg, 24 hr (Day 2), read-out: Concentration",64.6 µM
same,concentration at 168 h,"200 mg, Patient 009 Dose 200 mg, 168 hr (Day 8), read-out: Concentration",60.1 µM
same,concentration at 170 h,[5],149 µM
same,concentration at 171 h,"200 mg, Patient 009 Dose 200 mg, 171 hr, read-out: Concentration",170 µM
same,concentration at 172 h,"200 mg, Patient 009 Dose 200 mg, 172 hr, read-out: Concentration",139 µM
same,concentration at 192 h,"200 mg, Patient 009 Dose 200 mg, 192 hr (Day 9), read-out: Concentration",136 µM
same,concentration at 338 h,[5],161 µM
same,concentration at 339 h,[5],167 µM
same,concentration at 340 h,"200 mg, Patient 009 Dose 200 mg, 340 hr, read-out: Concentration",153 µM
same,concentration at 360 h,"200 mg, Patient 009 Dose 200 mg, 360 hr (Day 16), read-out: Concentration",218 µM
same,concentration at 504 h,"200 mg, Patient 009 Dose 200 mg, 504 hr (Day 22), read-out: Concentration",253 µM
same,concentration at 506 h,"200 mg, Patient 009 Dose 200 mg, 506 hr, read-out: Concentration",285 µM
same,concentration at 507 h,[5],296 µM
same,concentration at 508 h,"200 mg, Patient 009 Dose 200 mg, 508 hr, read-out: Concentration",362 µM
same,concentration at 528 h,[5],242 µM
same,concentration at 672 h,"200 mg, Patient 009 Dose 200 mg, 672 hr (Day 29), read-out: Concentration",251 µM
same,concentration at 674 h,"200 mg, Patient 009 Dose 200 mg, 674 hr, read-out: Concentration",472 µM
same,concentration at 675 h,"200 mg, Patient 009 Dose 200 mg, 675 hr, read-out: Concentration",261 µM
same,concentration at 676 h,[5],358 µM
same,concentration at 696 h,[5],338 µM
same,concentration at 840 h,[5],399 µM
same,concentration at 842 h,"200 mg, Patient 009 Dose 200 mg, 842 hr, read-out: Concentration",346 µM
